Experimental data taken from patent EP2926811A1, “ARTEMETHER-CONTAINING PHARMACEUTICAL COMPOSITION, PREPARATION, AND USE THEREOF” (Kunming Pharmaceutical Corp., priority 2012, dated 2014).

Test system: nude-mouse transplanted tumor of human gastric cancer MKN-45
Experiment: growth of nude-mouse transplanted tumor of human gastric cancer MKN-45
Details: positive control, 10 mg/kg iv, day 19

With `O=c1[nH]cc(F)c(=O)[nH]1` [5-Fu, 5-fluorouracil] the RTV was 10.60±2.28 and the “T/C (%)” value was 37.72%.
